Assay results as given in paper PMC8694140, “Synthesis and photobiological applications of naphthalimide–benzothiazole conjugates: cytotoxicity and topoisomerase IIα inhibition” (RSC Advances, 2021).

How the values were obtained:
[1] = system: HeLa (cervix) human cancer cell line; test: MTT cytotoxicity assay, HeLa; type: cell-based; conditions: 48 h
Experimental: (§1) Human malignant cell lines, i.e., MCF7 (breast), HeLa (cervix), and A549 (lung), as well as non-cancerous human cell line Hek293 (kidney), were cultured using the Ham's media or DMEM having 10% FBS, […] streptomycin, 100 U ml^−1 penicillin, and 50 mM glutamine. For seeding of cells, 96 well plates were used, maintaining the density of […] cells per well with the help of DMEM as a media having 10% FBS cells. Then, seeded cells were incubated in an incubator having a 5% CO2 supply at 37 °C. Compounds were added to the wells at 1, 10, and 100 μM concentrations, and cells were incubated for 48 h at 37 °C and then added 10 μl of MTT to each well prepared from 5 mg ml^−1 stock solution using 1 × PBS buffer and were incubated for 4 h at 37 °C in the dark. DMSO (100 μl) was used to dissolve the formazan crystals. To determine the concentration of formazan, the crystal absorbance difference was recorded at 570 nm. The percentage of relative cell toxicity was calculated by using the following eqn (1):1 [drawing 1]

[2] = system: MCF7 (breast) human cancer cell line; test: MTT cytotoxicity assay, MCF7; type: cell-based
Experimental: as §1

[3] = system: A549 (lung) human cancer cell line; test: MTT cytotoxicity assay, A549; type: cell-based
Experimental: as §1

[4] = system: Hek293 (kidney) human noncancerous cell line; test: MTT cytotoxicity assay, normal cells Hek293; type: cell-based; conditions: read-out: growth inhibition of Hek293
Experimental: To evaluate the safety, the cytotoxic effect of all compounds (7–22) against Hek293 (kidney) human noncancerous cell line was also evaluated using a colorimetric assay (MTT assay) at the concentration level of 10 μM.
as §1

Row | Compound | IC50 ([1]; Homo sapiens) | IC50 ([2]; Homo sapiens, MCF7, 48 h) | IC50 ([3]; Homo sapiens, A549, 48 h) | melting point | IC50 [1] | IC50 ([2]; 48 h) | IC50 ([3]; 48 h) | inhibition at 10 µM [4]
1 | C=CCn1cc(-c2nc3ccccc3s2)c2cc(-c3ccc4c5c(cccc35)C(=O)N(CCN3CCOCC3)C4=O)ccc21 [Compound 14, 6-(1-Allyl-3-(benzo[d]thiazol-2-yl)-1H-indol-5-yl)-2-(2-morpholinoethyl)-1H-benzo[de]isoquinoline-1,3(2H)-dione] | 3.93 ± 0.11 µM | 3.69 ± 0.09 µM | 1.11 ± 0.06 µM | 285 to 288 °C |  |  |  | 
2 | C=CCn1cc(-c2nc3ccccc3s2)c2cc(-c3ccc4c5c(cccc35)C(=O)N(Nc3ccccc3)C4=O)ccc21 [Compound 18, 6-(1-Allyl-3-(benzo[d]thiazol-2-yl)-1H-indol-5-yl)-2-(phenylamino)-1H-benzo[de]isoquinoline-1,3(2H)-dione] | 3.96 ± 0.2 µM | 3.58 ± 0.14 µM | 0.96 ± 0.12 µM |  |  |  |  | 
3 | 6-(3-(Benzo[d]thiazol-2-yl)-1-propyl-1H-indol-5-yl)-2-(4-fluorophenyl)-1H-benzo[de]isoquinoline-1,3(2H)-dione [Compound 21] |  |  |  |  | 3.96 ± 0.16 µM | 4.1 ± 0.23 µM | 0.63 ± 0.08 µM | 
4 | C=CCn1cc(-c2nc3ccccc3s2)c2cc(-c3ccc4c5c(cccc35)C(=O)N(CCN)C4=O)ccc21 [Compound 9, 6-(1-Allyl-3-(benzo[d]thiazol-2-yl)-1H-indol-5-yl)-2-(2-aminoethyl)-1H-benzo[de]isoquinoline-1,3(2H)-dione] | 4.02 ± 0.18 µM | 4.17 ± 0.13 µM | 3.06 ± 0.13 µM |  |  |  |  | 17%
5 | C=CCn1cc(-c2nc3ccccc3s2)c2cc(-c3ccc4c5c(cccc35)C(=O)OC4=O)ccc21 [Compound 7, 6-(1-Allyl-3-(benzo[d]thiazol-2-yl)-1H-indol-5-yl)-1H,3H-benzo[de]isochromene-1,3-dione] | 7.18 ± 0.28 µM | 6.94 ± 0.16 µM | 0.45 ± 0.04 µM | 255 to 258 °C |  |  |  | 
6 | C=CCN1C(=O)c2cccc3c(-c4ccc5c(c4)c(-c4nc6ccccc6s4)cn5CC=C)ccc(c23)C1=O [Compound 15, 2-Allyl-6-(1-allyl-3-(benzo[d]thiazol-2-yl)-1H-indol-5-yl)-1H-benzo[de]isoquinoline-1,3(2H)-dione] | 2.71 ± 0.09 µM | 0.38 ± 0.06 µM | 1.89 ± 0.15 µM |  |  |  |  | 
7 | COc1cc([C@@H]2c3cc4c(cc3[C@@H](O[C@@H]3O[C@@H]5CO[C@@H](C)O[C@H]5[C@H](O)[C@H]3O)[C@H]3COC(=O)[C@H]23)OCO4)cc(OC)c1O [Etoposide, reference compound] | 1.89 ± 0.19 µM | 0.33 ± 0.13 µM | 0.1 ± 0.02 µM |  |  |  |  | 
8 | C=CCn1cc(-c2nc3ccccc3s2)c2cc(-c3ccc4c5c(cccc35)C(=O)N(CCN3CCNCC3)C4=O)ccc21 [Compound 20, 6-(1-Allyl-3-(benzo[d]thiazol-2-yl)-1H-indol-5-yl)-2-(2-(piperazin-1-yl)ethyl)-1H-benzo[de] isoquinoline-1,3(2H)-dione] | 3.45 ± 0.13 µM | 3.35 ± 0.16 µM | 0.76 ± 0.04 µM | 294 to 297 °C |  |  |  | 18%
9 | C=CCn1cc(-c2nc3ccccc3s2)c2cc(-c3ccc4c5c(cccc35)C(=O)NC4=O)ccc21 [Compound 16, 6-(1-Allyl-3-(benzo[d]thiazol-2-yl)-1H-indol-5-yl)-1H-benzo[de]isoquinoline-1,3(2H)-dione] | 3.61 ± 0.19 µM | 3.57 ± 0.08 µM | 1.91 ± 0.1 µM | 277 to 280 °C |  |  |  | 
10 | C=CCn1cc(-c2nc3ccccc3s2)c2cc(-c3ccc4c5c(cccc35)C(=O)N(C3CCCCC3)C4=O)ccc21 [Compound 19, 6-(1-Allyl-3-(benzo[d]thiazol-2-yl)-1H-indol-5-yl)-2-cyclohexyl-1H-benzo[de]isoquinoline-1,3(2H)-dione] | 3.33 ± 0.11 µM | 1.65 ± 0.11 µM | 1.47 ± 0.12 µM | 285 to 288 °C |  |  |  | 
11 | C=CCn1cc(-c2nc3ccccc3s2)c2cc(-c3ccc4c5c(cccc35)C(=O)N(CCN(CC)CC)C4=O)ccc21 [Compound 11, 6-(1-Allyl-3-(benzo[d]thiazol-2-yl)-1H-indol-5-yl)-2-(2-(diethylamino)ethyl)-1H-benzo[de] isoquinoline-1,3(2H)-dione] | 3.07 ± 0.17 µM | 3.57 ± 0.21 µM | 0.81 ± 0.05 µM | 281 to 284 °C |  |  |  | ~2%
12 | C=CCn1cc(-c2nc3ccccc3s2)c2cc(-c3ccc4c5c(cccc35)C(=O)N(CCN(C)C)C4=O)ccc21 [Compound 10, 6-(1-Allyl-3-(benzo[d]thiazol-2-yl)-1H-indol-5-yl)-2-(2-(dimethylamino)ethyl)-1H-benzo[de] isoquinoline-1,3(2H)-dione] | 3.4 ± 0.13 µM | 3.31 ± 0.11 µM | 1.02 ± 0.08 µM | 274 to 277 °C |  |  |  | 
13 | C=CCn1cc(-c2nc3ccccc3s2)c2cc(-c3ccc4c5c(cccc35)C(=O)N(Cc3ccccc3)C4=O)ccc21 [Compound 17, 6-(1-Allyl-3-(benzo[d]thiazol-2-yl)-1H-indol-5-yl)-2-benzyl-1H-benzo[de]isoquinoline-1,3(2H)-dione] | 4.17 ± 0.21 µM | 4.39 ± 0.23 µM | 2.01 ± 0.09 µM | 281 to 284 °C |  |  |  | 
14 | CCCn1cc(-c2nc3ccccc3s2)c2cc(-c3ccc4c5c(cccc35)C(=O)N(N)C4=O)ccc21 [Compound 22, 2-Amino-6-(3-(benzo[d]thiazol-2-yl)-1-propyl-1H-indol-5-yl)-1H-benzo[de]isoquinoline-1,3(2H)-dione] | 8.59 ± 0.28 µM | 5.84 ± 0.28 µM | 0.84 ± 0.07 µM |  |  |  |  | 
15 | C=CCn1cc(-c2nc3ccccc3s2)c2cc(-c3ccc4c5c(cccc35)C(=O)N(CCCC)C4=O)ccc21 [Compound 8, 6-(1-Allyl-3-(benzo[d]thiazol-2-yl)-1H-indol-5-yl)-2-butyl-1H-benzo[de]isoquinoline-1,3(2H)-dione] | 5.52 ± 0.15 µM | 7.69 ± 0.2 µM | 1.19 ± 0.11 µM | 277 to 280 °C |  |  |  | 
